In EP2386565A2, “Compounds and methods to inhibit or augment an inflammatory response” (Cambridge Enterprise Ltd., priority 1999, dated 2000):
Positions of bridges follow the written chain, without caps; N, C: chain ends. Non-standard residues stand in square brackets, D forms with d. Residues, ends and D or L forms follow the SMILES beside them.

What was measured:
[1] = test system: SDF-1α induced human monocyte migration; test: Migration of freshly prepared peripheral blood monocytes, SDF-1α; format: cell-based
Description: (§1) Agents may also be screened in a chemotactic assay which employs human neutrophils, eosinophils, mast cells, basophils, platelets, lymphocytes or monocytes. For monocytes, 9 mls of fresh blood are transferred to a tube containing 1 ml of 3.8% sodium citrate, and left at room temperature for 15 minutes. Five mls of this anti-coagulated blood are carefully layered over 3.5 ml Polymorphprep® (Nycomed Pharma, Oslo), and centrifuged at 500 g for 35 minutes per the manufacturer's instructions. The top band at the sample/medium interface contains monocytes. The monocytes are carefully removed with a glass pipette, and reconstituted to the original volume (5 ml). The cells are washed with PBS plus 10% fetal calf serum, and centrifuged at 400 g for 10 minutes. The washing step is repeated three times before the cells are counted. Cells are resuspended at 1 × 10^7 cells/ml in RPMI-1640 + 10% fetal calf serum (FCS). The monocytes are cultured for two days at 37°C in a humidified atmosphere of 5% CO2-
(§2) On day 2, the cells are counted, spun down, and reconstituted to 1 × 10^7 cells/ml in Gey's balanced salt solution + 1 mg/ml bovine serum albumin (BSA). […]

[2] = test system: MIP1α induced human monocyte migration; test: Migration of freshly prepared peripheral blood monocytes, MIP1α; format: cell-based
Description: as §1, §2

trypsin = test: Stability against enzymatic destruction; format: in vitro ADME; details: 5 units trypsin for 2 hrs at 37°C
Excerpt: For example, to prepare a peptide 3 derivative, peptide 3(3-12)[MCP-1] was modified according to Jameson et al. (Nature, 368, 744 (1994)), which yielded CRD-Cys13Leu4Ile11peptide 3(3-12)[MCP-1] (Figure 3).

D2s dopamine receptors = target: T1, D2s dopamine receptors (Homo sapiens, UniProt P14416); test: Competition of 3H-spiperone binding to membranes; details: 100 µM highest concentration tested
T1 construct: purchased RBI/Sigma D-179; host or cells: membranes
Description: For dopamine receptor binding, membranes (D-179, RBI/Sigma) are diluted into binding buffer (75 mM Tris pH 7.4, 12.5 mM MgCl2 and 2 mM EDTA). For example, 10 µl of membranes are diluted in 500 µl of binding buffer (i.e., 1:50 dilution), which is aliquoted into labelled tubes. Cold competitor or test competitor is added, (e.g., 5 µl of 100x stock solution; 5 µl of 1 mM haloperidol solution (H-100, RBI/Sigma in DMSO). Radioligand is then added (^3H-Spiperone, TRK 818, Amersham, 250 µCi in 250 µl, 10.5 µM at 95 Ci/mmol). For competition studies, 0.5 nM is used. A 100x stock (i.e., 50 nM) is made by diluting the commercial stock 1:210 in binding buffer, and 5 µl is added to every tube. Control tubes have radioligand but no membranes. The mixtures are vortexed, then spun very briefly. The mixtures are then incubated for 1 hour at 27°C in a water bath. The mixture is filtered through GF/C filters over a vacuum. Each filter is pre-soaked in polyethyleneimine (0.3% in water; add 1 ml of 10% stock (P-261; RBI/Sigma) to 33 ml of MilliQ water). The tubes are washed with 2-3 ml of wash buffer (50 mM Tris pH 7.4) and the wash filtered. The filters are then rinsed with 3 × 5 ml of wash buffer, air dried, placed in a scintillation vial and 4.5 ml of scintillant added. The activity on the filter is then determined.

[3] = test system: lung cells of normal mice; test: Cell number and cell type in the lungs of normal mice; format: in vivo
Description: To determine whether increasing doses of CRD-Leu4Ile11Cys13 peptide 3(3-12)[MCP-1] alters the cell number and type of cell within the lungs of normal mice, mice were injected intravenously, intravenously and intratracheally, or intratracheally alone with CRD-Leu4Ile11Cys13 peptide 3(3-12)[MCP-1]. Mice were sacrificed at 20-24 hours post injection. Lungs were collected for isolation of cells, which were subsequently counted and characterized by surface staining for CD3, CD4, CD8, B220, and Mac-1.

T1 sequence (P14416 1-414 isoform P14416-2): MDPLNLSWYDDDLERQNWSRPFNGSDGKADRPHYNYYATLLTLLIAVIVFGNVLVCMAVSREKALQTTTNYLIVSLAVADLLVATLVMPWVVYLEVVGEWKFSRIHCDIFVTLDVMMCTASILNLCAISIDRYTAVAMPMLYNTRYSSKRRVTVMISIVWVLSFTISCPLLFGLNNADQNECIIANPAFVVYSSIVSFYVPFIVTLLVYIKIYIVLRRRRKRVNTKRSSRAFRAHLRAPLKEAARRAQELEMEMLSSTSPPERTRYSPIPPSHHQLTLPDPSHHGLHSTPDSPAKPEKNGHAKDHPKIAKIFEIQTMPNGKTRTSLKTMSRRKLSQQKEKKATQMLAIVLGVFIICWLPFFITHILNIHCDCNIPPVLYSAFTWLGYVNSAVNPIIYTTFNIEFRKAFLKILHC

Structure (SMILES)	% inhibition at 100 µM versus SDF-1α [1]	% inhibition at 100 µM versus MIP1α [2]	stability against enzymatic destruction (in words) (trypsin)	ED50 for competition of spiperone binding to short splice variant D2 dopamine receptor (D2s dopamine receptors) [µM]	percentages of CD3, CD4, and B220 cells in lung of normal mice (in words) ([3]; high dose, all routes of administration)	total number of cells isolated from the lungs of normal mice (in words) ([3]; low dose (0.3 µg IV and/or 10 µg IT) compared to PBS)
CC[C@H](C)[C@H](NC(=O)[C@H](C)NC(=O)[C@H](CC(=O)O)NC(=O)[C@@H]1CCCN1C(=O)[C@H](CCC(N)=O)NC(=O)[C@H](C)N)C(=O)N[C@@H](CC(N)=O)C(=O)N[C@@H](C)C(=O)N1CCC[C@H]1C(=O)N[C@H](C(=O)N[C@H](C(=O)N[C@@H](CS)C(=O)N[C@@H](CS)C(=O)O)[C@@H](C)O)C(C)C [Peptide 1] (H-AQPDAINAPVTCC-OH; N-terminus and C-terminus assumed)	n.s.	n.s.	–	–	–	–
CC[C@@H](C)[C@H]1NC(=O)[C@@H](CCC(N)=O)NC(=O)[C@H](N)CSSC[C@H](C(N)=O)NC(=O)[C@@H](CC(C)C)NC(=O)[C@@H](CC(=O)O)NC(=O)[C@H]2CCCN2C(=O)[C@@H](CCCCN)NC(=O)[C@@H](CCC(N)=O)NC(=O)[C@@H](CCCCN)NC(=O)[C@@H](Cc2c[nH]c3ccccc23)NC1=O (H-[dC][dQ][dI][dW][dK][dQ][dK][dP][dD][dL][dC]-NH2; disulfide 1-11)	–	–	stable	>100	significantly reduced	higher
